Reference: US5866681A, “Thrombin receptor antagonists” (priority 1995, dated 1999)
Like-named read-outs stand apart in the source and are kept apart here. *1 amine or outer side, *2 acyl side, *3 side chain or, on linkers, in order; H or OH if unused. Where a SMILES comes first, the peptide text is derived from it. [ ]: non-standard residue; d: D form. The star is where a group is joined. X25 = CN(Cc1ccc(-c2ccccc2)cc1)[C@@H](Cc1ccccc1)C(=O)*; X1 = CN(Cc1cccc(Oc2ccccc2)c1)[C@@H](Cc1ccccc1)C(=O)*; Isoquinolin(3-yl)carbonyl = O=C(c1cc2ccccc2cn1)*; X3 = CCCCCCCN([C@@H](Cc1ccccc1)C(=O)[*:2])[*:1]; X16 = CCCCCN([C@@H](Cc1ccccc1)C(=O)[*:2])[*:1]; X15 = CCCCN([C@@H](Cc1ccccc1)C(=O)[*:2])[*:1]; 2Naphthylsulfonyl = O=S(=O)(c1ccc2ccccc2c1)*; Quinoxaline2carbonyl = O=C(c1cnc2ccccc2n1)*; X13 = CN(CC1CCCCC1)[C@@H](Cc1ccccc1)C(=O)*; X6 = CCCCCN(CCCCC)[C@@H](Cc1ccccc1)C(=O)*; X11 = O=C([C@@H]1Cc2ccccc2CN1CC1CCCCC1)*; Butanoyl(2-OPh) = CCC(Oc1ccccc1)C(=O)*; X5 = CCCCCN(C)[C@@H](Cc1ccccc1)C(=O)*; X7 = CCCCCCC(Oc1ccc2ccccc2c1)C(=O)*; X20 = CCCCC(Oc1cccc2ccccc12)C(=O)*; X4 = CCCCCN1Cc2ccccc2C[C@H]1C(=O)*; NMeR = CN[C@@H](CCCNC(=N)N)C(=O)O; Quinaldoyl = O=C(c1ccc2ccccc2n1)*; hArg = N=C(N)NCCCC[C@H](N)C(=O)O; Cha = N[C@@H](CC1CCCCC1)C(=O)O; dCha = N[C@H](CC1CCCCC1)C(=O)O; X8 = O=C(C1CCc2ccccc2C1)*; Orn = NCCC[C@H](N)C(=O)O

Molecular target: T1, thrombin receptor (Homo sapiens, UniProt P25116)
T1 construct: washed human platelets are prepared from blood drawn from healthy volunteers; endogenous in cells; host or cells: washed human platelets from healthy volunteers
T1 sequence (P25116 22-425): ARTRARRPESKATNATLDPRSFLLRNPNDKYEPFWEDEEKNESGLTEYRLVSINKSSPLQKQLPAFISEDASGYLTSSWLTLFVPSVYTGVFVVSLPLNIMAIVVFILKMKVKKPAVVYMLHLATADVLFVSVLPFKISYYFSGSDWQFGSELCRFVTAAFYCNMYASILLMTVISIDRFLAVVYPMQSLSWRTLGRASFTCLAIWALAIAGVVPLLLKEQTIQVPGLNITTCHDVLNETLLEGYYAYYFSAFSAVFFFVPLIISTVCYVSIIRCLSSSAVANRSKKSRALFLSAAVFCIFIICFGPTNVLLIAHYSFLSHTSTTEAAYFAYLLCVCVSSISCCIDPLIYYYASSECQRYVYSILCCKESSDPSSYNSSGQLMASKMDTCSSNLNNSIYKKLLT
Experiment: Platelet aggregation assay for thrombin receptor antagonist activity (washed human platelets stimulated with α-thrombin)
Format: cell-based
Description: The compounds of the present invention may be tested for thrombin receptor antagonist activity by using a platelet aggregation assay. In this assay, washed human platelets are prepared from blood drawn from healthy volunteers who have not ingested any medications for two weeks prior to donation. Blood is drawn into 12.5% (vol/vol) ACD (85 mM sodium citrate, 111 mM dextrose, 71 mM citric acid) containing 0.1% (vol/vol) PGI2 (0.05 mg/mL PGI2, 100 mM Tris, pH 12). Platelet-rich plasma was obtained by centrifugation at 160×g for 20 minutes. The platelets were pelleted by centrifugation at 760×g for 10 minutes and resuspended in CGS (13 mM trisodium citrate, 120 mM sodium chloride, 30 mM dextrose, pH 7.0) containing 0.1% (vol/vol) PGI2, repelleted and resuspended in Tyrodes buffer (10 mM Hepes, 12 mM sodium bicarbonate, 138 mM sodium chloride, 5.5 mM glucose, 2.9 mM potassium chloride, 1.0 mM calcium chloride, pH 7.4) and stored at 37° C. Approximately 0.4-10 nM α-thrombin is used to stimulate platelet aggregation in control reactions which are monitored by aggregometry using an aggregometer. Candidate antagonists are added to the platelet mixture followed by the addition of thrombin in order to assess their ability to prevent thrombin-mediated aggregation.
Platelet aggregation can also be measured with washed platelets in 96-well microtiter plates as described in Fratantoni, J. C. et al., Am. J. Clin. Pathol. 94:613-617 (1990). The ability of the antagonists to block the thrombin receptor was assessed in this assay using various concentrations of antagonists. The concentration at which 50% inhibition of platelet aggregation is achieved is defined as IC50.

[1] = washed human platelets, thrombin-mediated aggregation, read-out: IC50 (concentration at which 50% inhibition of platelet aggregation is achieved)

Row | Compound | IC50 [1] [µM] | IC50 [µM]
1 | CCC(Oc1ccccc1)C(=O)N[C@@H](CC1CCCCC1)C(=O)N[C@@H](CC1CCCCC1)C(=O)N(C)[C@@H](CCCNC(=N)N)C(=O)N[C@@H](CCCNC(=N)N)C(N)=O (some centres unmarked) [Compound 54] ({Butanoyl(2-OPh)}-[Cha][Cha][NMeR]R-NH2) | 0.5 | 
2 | N=C(N)NCCC[C@H](NC(=O)[C@H](CC1CCCCC1)NC(=O)[C@H](CC1CCCCC1)NC/C=C/c1ccccc1)C(=O)N[C@@H](CCCCN)C(N)=O [Compound 33] | 5 | 
3 | CN(Cc1cccc(Oc2ccccc2)c1)[C@@H](Cc1ccccc1)C(=O)N[C@@H](CC1CCCCC1)C(=O)N[C@@H](CC1CCCCC1)C(=O)N[C@@H](CCCNC(=N)N)C(=O)N[C@@H](CCCCN)C(N)=O [Compound 17] (X1-[Cha][Cha]RK-NH2) | 15 | 
4 | CCC(Oc1ccccc1)C(=O)N[C@@H](CC1CCCCC1)C(=O)N[C@@H](CC1CCCCC1)C(=O)N[C@@H](CCCNC(=N)N)C(=O)N[C@H](CCCCN)C(N)=O (some centres unmarked) [Compound 52] ({Butanoyl(2-OPh)}-[Cha][Cha]R[dK]-NH2) | 15 | 
5 | CCCCCCCN[C@@H](Cc1ccccc1)C(=O)N[C@@H](CC1CCCCC1)C(=O)N[C@@H](CC1CCCCC1)C(=O)N[C@@H](CCCNC(=N)N)C(=O)N[C@@H](CCCCN)C(=O)N1CCC[C@H]1C(=O)N[C@@H](CC(N)=O)C(=O)N[C@@H](CC(=O)O)C(=O)N[C@@H](CCCCN)C(N)=O [Compound 3] (H-[X3][Cha][Cha]RKPNDK-NH2) | 10 | 
6 | CCCCCN1Cc2ccccc2C[C@H]1C(=O)N[C@@H](CC1CCCCC1)C(=O)N[C@@H](CC1CCCCC1)C(=O)N[C@@H](CCCNC(=N)N)C(=O)N[C@@H](CCCCN)C(N)=O [Compound 11, (N-n-pentyl-Tic)-Cha-Cha-Arg-Lys-NH2] (X4-[Cha][Cha]RK-NH2) | 2.5 | 
7 | CCCCC(Oc1cccc2ccccc12)C(=O)N[C@@H](CC1CCCCC1)C(=O)N[C@@H](CC1CCCCC1)C(=O)N[C@@H](CCCNC(=N)N)C(=O)N[C@@H](CCCCN)C(N)=O (some centres unmarked) [Compound 27] (X20-[Cha][Cha]RK-NH2) | 5 | 
8 | CCC(Oc1ccccc1)C(=O)N[C@@H](Cc1ccccc1)C(=O)N[C@@H](CC1CCCCC1)C(=O)N[C@@H](CCCNC(=N)N)C(=O)N[C@@H](CCCCN)C(N)=O (some centres unmarked) [Compound 46] ({Butanoyl(2-OPh)}-F[Cha]RK-NH2) | 15 | 
9 | CCC(Oc1ccccc1)C(=O)N[C@@H](CC1CCCCC1)C(=O)N[C@@H](CC1CCCCC1)C(=O)N[C@@H](CCCCN)C(=O)N[C@@H](CCCCN)C(N)=O (some centres unmarked) [Compound 49] ({Butanoyl(2-OPh)}-[Cha][Cha]KK-NH2) | 75 | 
10 | CCCCCN[C@@H](Cc1ccccc1)C(=O)N[C@@H](CC1CCCCC1)C(=O)N[C@@H](CC1CCCCC1)C(=O)N[C@@H](CCCNC(=N)N)C(=O)N[C@@H](CCCCN)C(N)=O [Compound 14] (H-[X16][Cha][Cha]RK-NH2) |  | 5
11 | CCCCCN(CCCCC)[C@@H](Cc1ccccc1)C(=O)N[C@@H](CC1CCCCC1)C(=O)N[C@@H](CC1CCCCC1)C(=O)N[C@@H](CCCNC(=N)N)C(=O)N[C@@H](CCCCN)C(N)=O [Compound 21, (N,N-di-n-pentyl-Phe)-Cha-Cha-Arg-Lys-NH2] (X6-[Cha][Cha]RK-NH2) | 10 | 
12 | CCC(Oc1ccccc1)C(=O)N[C@@H](CC1CCCCC1)C(=O)N[C@@H](CC1CCCCC1)C(=O)N[C@@H](CCCNC(=N)N)C(=O)N[C@@H](CCCN)C(N)=O (some centres unmarked) [Compound 48] ({Butanoyl(2-OPh)}-[Cha][Cha]R[Orn]-NH2) | 10 | 
13 | CCCCN[C@@H](Cc1ccccc1)C(=O)N[C@@H](CC1CCCCC1)C(=O)N[C@@H](CC1CCCCC1)C(=O)N[C@@H](CCCNC(=N)N)C(=O)N[C@@H](CCCCN)C(=O)N1CCC[C@H]1C(=O)N[C@@H](CC(N)=O)C(=O)N[C@@H](CC(=O)O)C(=O)N[C@@H](CCCCN)C(N)=O [Compound 4] (H-[X15][Cha][Cha]RKPNDK-NH2) | 5 | 
14 | CCC(Oc1ccccc1)C(=O)N[C@@H](CC1CCCCC1)C(=O)N[C@@H](CC1CCCCC1)C(=O)N[C@@H](CCCNC(=N)N)C(=O)N[C@@H](CCCNC(=N)N)C(N)=O (some centres unmarked) [Compound 51] ({Butanoyl(2-OPh)}-[Cha][Cha]RR-NH2) | 2.5 | 
15 | N=C(N)NCCC[C@H](NC(=O)[C@H](CC1CCCCC1)NC(=O)[C@H](CC1CCCCC1)NC(=O)c1cc2ccccc2cn1)C(=O)N[C@@H](CCCCN)C(N)=O [Compound 32] ({Isoquinolin(3-yl)carbonyl}-[Cha][Cha]RK-NH2) |  | 15
16 | N=C(N)NCCC[C@H](NC(=O)[C@H](CC1CCCCC1)NC(=O)[C@H](CC1CCCCC1)NS(=O)(=O)c1ccc2ccccc2c1)C(=O)N[C@@H](CCCCN)C(N)=O [Compound 38] (2Naphthylsulfonyl-[Cha][Cha]RK-NH2) | 10 | 
17 | CCCCCCC(Oc1ccc2ccccc2c1)C(=O)N[C@@H](CC1CCCCC1)C(=O)N[C@@H](CC1CCCCC1)C(=O)N[C@@H](CCCNC(=N)N)C(=O)N[C@@H](CCCCN)C(N)=O (some centres unmarked) [Compound 23] (X7-[Cha][Cha]RK-NH2) | 5 | 
18 | N=C(N)NCCC[C@H](NC(=O)[C@H](CC1CCCCC1)NC(=O)[C@H](CC1CCCCC1)NC(=O)c1ccc2ccccc2n1)C(=O)N[C@@H](CCCCN)C(N)=O [Compound 28] (Quinaldoyl-[Cha][Cha]RK-NH2) | 30 | 
19 | CN(CC1CCCCC1)[C@@H](Cc1ccccc1)C(=O)N[C@@H](CC1CCCCC1)C(=O)N[C@@H](CC1CCCCC1)C(=O)N[C@@H](CCCNC(=N)N)C(=O)N[C@@H](CCCCN)C(N)=O [Compound 20] (X13-[Cha][Cha]RK-NH2) | 15 | 
20 | CCCCCN(C)[C@@H](Cc1ccccc1)C(=O)N[C@@H](CC1CCCCC1)C(=O)N[C@H](CC1CCCCC1)C(=O)N[C@@H](CCCNC(=N)N)C(=O)N[C@@H](CCCCN)C(N)=O [Compound 43] (X5-[Cha][dCha]RK-NH2) |  | 15
21 | C/C(=C\c1ccccc1)CN[C@@H](CC1CCCCC1)C(=O)N[C@@H](CC1CCCCC1)C(=O)N[C@@H](CCCNC(=N)N)C(=O)N[C@@H](CCCCN)C(N)=O [Compound 34] | 15 | 
22 | N=C(N)NCCC[C@H](NC(=O)[C@H](CC1CCCCC1)NC(=O)[C@H](CC1CCCCC1)NC(=O)C1CCc2ccccc2C1)C(=O)N[C@@H](CCCCN)C(N)=O (some centres unmarked) [Compound 31] (X8-[Cha][Cha]RK-NH2) | > 200 | 
23 | N=C(N)NCCC[C@H](NC(=O)[C@H](CC1CCCCC1)NC(=O)[C@H](CC1CCCCC1)NC(=O)[C@@H]1Cc2ccccc2CN1CC1CCCCC1)C(=O)N[C@@H](CCCCN)C(N)=O [Compound 12] (X11-[Cha][Cha]RK-NH2) | 20 | 
24 | CCC(Oc1ccccc1)C(=O)N[C@@H](CC1CCCCC1)C(=O)N[C@@H](CC1CCCCC1)C(=O)N[C@@H](CCCCNC(=N)N)C(=O)N[C@@H](CCCCN)C(N)=O (some centres unmarked) [Compound 47] ({Butanoyl(2-OPh)}-[Cha][Cha][hArg]K-NH2) | 2.5 | 
25 | CCCCCN1Cc2ccccc2C[C@H]1C(=O)N[C@@H](CC1CCCCC1)C(=O)N[C@@H](CC1CCCCC1)C(=O)N(C)[C@@H](CCCNC(=N)N)C(=O)N[C@@H](CCCNC(=N)N)C(N)=O [Compound 39] (X4-[Cha][Cha][NMeR]R-NH2) | 8 | 
26 | CCC(Oc1ccccc1)C(=O)N[C@@H](CC1CCCCC1)C(=O)N[C@@H](CC1CCCCC1)C(=O)NCc1ccncc1 (some centres unmarked) [Compound 58] | > 100 | 
27 | CN(Cc1ccc(-c2ccccc2)cc1)[C@@H](Cc1ccccc1)C(=O)N[C@@H](CC1CCCCC1)C(=O)N[C@@H](CC1CCCCC1)C(=O)N[C@@H](CCCNC(=N)N)C(=O)N[C@@H](CCCCN)C(N)=O [Compound 18] (X25-[Cha][Cha]RK-NH2) | 5 | 
28 | N=C(N)NCCC[C@H](NC(=O)[C@H](CC1CCCCC1)NC(=O)[C@H](CC1CCCCC1)NC(=O)c1cnc2ccccc2n1)C(=O)N[C@@H](CCCCN)C(N)=O [Compound 37] (Quinoxaline2carbonyl-[Cha][Cha]RK-NH2) | > 100 | 
29 | CCC(Oc1ccccc1)C(=O)N[C@@H](Cc1ccccc1)C(=O)N[C@@H](CC1CCCCC1)C(=O)N[C@@H](CCCCNC(=N)N)C(=O)N[C@@H](CCCNC(=N)N)C(N)=O (some centres unmarked) [Compound 57] ({Butanoyl(2-OPh)}-F[Cha][hArg]R-NH2) | 2 | 
